Assay results taken from patent EP0531640B1, “Antibiotic LL-E19020 Gamma” (F. HOFFMANN-LA ROCHE AG, priority 1991, dated 1993).
Converted amounts (≈) assume the structure as drawn.

Legend:
[1] = system: non-enterococcal streptococci; experiment: MIC by agar dilution, summary for non-enterococcal streptococci; type: cell-based; details: 18 h; text summary: relatively good activity against non-enterococcal streptococci
Method: (§1) The in vitro antibacterial activity of LL-E19020 Gamma is determined against a spectrum of gram positive and gram negative bacteria by a standard agar dilution method. Mueller-Hinton agar containing 5% sheep blood and two-fold decreasing concentrations of LL-E19020 Gamma is poured into petri dishes. The agar surfaces are inoculated with 1 to 5X10^4 colony forming units of bacteria by means of the Steers replicating device. The lowest concentration of antibiotic that inhibits growth of a bacterial strain after 18 hours incubation is recorded as the minimal inhibitory concentration for that strain.
(§2) • 1. Serial two-flow dilutions of drug are prepared in Mueller-Hinton broth in a range of 2560 µg/ml-0.15 µg/ml plus a solvent control. • 2. Two milliliters of drug dilution (10X) are added to sterile screw cap bottles to which 18 ml of Mueller-Hinton agar containing 5.6% defibrinated sheep blood is added. Final drug concentration ranges 256 µg/ml-0.015 µg/ml in agar containing 5% sheep blood. • 3. A few isolated colonies of each test organism are inoculated into 5 ml trypticase soy broth or brain heart infusion broth. The cultures are shaken at 35 °C. for 5 hours. • 4. Each culture is diluted 1:50 (10^-1.7) in Mueller-Hinton broth and applied to agar plates using a Steers replicator. Control plates should be seeded last to ensure that viable organisms are present throughout the procedure. […]

[2] = Growth of chickens and efficiency of feed utilization; type: in vivo, Peterson X Arbor Acres chicks; details: 25 ppm in the diet
Method: In this test, one day old Peterson X Arbor Acres chicks are sorted into equal weight groups of 5 males and 5 females per cage. Cages are randomized to treatment groups with six replicates per treatment. The test compound is evaluated 25 ppm in the diet against chicks receiving a non-medicated diet and a diet containing 200 ppm of penicillin as a positive control.
The cages are weighed at day 1 and at day 14 and feed consumption is measured on weigh days. Feed and water are offered ad libitum and lighting and supplemental heat are provided continuously.
The poultry diet employed in the test is as follows:
The vitamin-amino acid premix in the above feed composition is prepared from the following formulation. The expressions of quantity relate to units per kilogram of the finished feed composition.

[3] = system: staphylococci and enterococci; experiment: MIC by agar dilution, summary for staphylococci and enterococci; type: cell-based; details: 18 h; text summary: poor to moderate activity vs staphylococci and enterococci
Method: as §1, §2

[4] = system: Staphylococcus aureus IVES 160; experiment: MIC by agar dilution; type: cell-based; details: IVES160, Mueller-Hinton agar, 5% sheep blood, 18 hours, read-out: MINIMAL INHIBITORY CONCENTRATION
Method: as §1
(§3) • 1. Serial two-flow dilutions of drug are prepared in Mueller-Hinton broth in a range of 2560 µg/ml-0.15 µg/ml plus a solvent control. • 2. Two milliliters of drug dilution (10X) are added to sterile screw cap bottles to which 18 ml of Mueller-Hinton agar containing 5.6% defibrinated sheep blood is added. Final drug concentration ranges 256 µg/ml-0.015 µg/ml in agar containing 5% sheep blood. • 3. A few isolated colonies of each test organism are inoculated into 5 ml trypticase soy broth or brain heart infusion broth. The cultures are shaken at 35 °C. for 5 hours. • 4. Each culture is diluted 1:50 (10^-1.7) in Mueller-Hinton broth and applied to agar plates using a Steers replicator. Control plates should be seeded last to ensure that viable organisms are present throughout the procedure. Inoculated agar plates are allowed to stand undisturbed until the inoculum spots are completely absorbed. • 5. The plates are inverted and incubated at 35 °C. for 18 hours with CO2. • 6. The minimum inhibitory concentration (MIC) is taken as the lowest concentration of antimicrobial agent at which complete inhibition of antimicrobial agent at which complete inhibition occurs. A very fine, barely visible haze or a single colony is disregarded.

[5] = system: Staphylococcus aureus SMITH (MP); experiment: MIC by agar dilution; type: cell-based; details: Mueller-Hinton agar, 5% sheep blood, 18 hours, read-out: MINIMAL INHIBITORY CONCENTRATION
Method: as §1, §3

[6] = system: Streptococcus pneumoniae TEX 85-2; experiment: MIC by agar dilution; type: cell-based; details: TEX852, Mueller-Hinton agar, 5% sheep blood, 18 hours, read-out: MINIMAL INHIBITORY CONCENTRATION
Method: as §1, §3

[7] = system: Enterococcus spp. CHBM 88-60; experiment: MIC by agar dilution; type: cell-based; details: Mueller-Hinton agar, 5% sheep blood, 18 hours, read-out: MINIMAL INHIBITORY CONCENTRATION
Method: as §1, §3

[8] = system: Staphylococcus aureus ATCC 29213; experiment: MIC by agar dilution; type: cell-based; details: ATCC29213, Mueller-Hinton agar, 5% sheep blood, 18 hours, read-out: MINIMAL INHIBITORY CONCENTRATION
Method: as §1, §3

[9] = system: Staphylococcus haemolyticus AVAH 88-1; experiment: MIC by agar dilution; type: cell-based; details: AVAH881, Mueller-Hinton agar, 5% sheep blood, 18 hours, read-out: MINIMAL INHIBITORY CONCENTRATION
Method: as §1, §3

[10] = system: Staphylococcus aureus CMC 83-131; experiment: MIC by agar dilution; type: cell-based; details: CMC83131, Mueller-Hinton agar, 5% sheep blood, 18 hours, read-out: MINIMAL INHIBITORY CONCENTRATION
Method: as §1, §3

[11] = system: Staphylococcus aureus ROSE (MP); experiment: MIC by agar dilution; type: cell-based; details: Mueller-Hinton agar, 5% sheep blood, 18 hours, read-out: MINIMAL INHIBITORY CONCENTRATION
Method: as §1, §3

[12] = system: Streptococcus pneumoniae CHBM 88-75; experiment: MIC by agar dilution; type: cell-based; details: CHBM8875, Mueller-Hinton agar, 5% sheep blood, 18 hours, read-out: MINIMAL INHIBITORY CONCENTRATION
Method: as §1, §3

gram negative bacteria = experiment: MIC by agar dilution, summary for gram-negative bacteria; type: cell-based; details: 18 h; text summary: no gram-negative activity
Method: as §1, §2

[13] = system: Streptococcus pyogenes C203; experiment: In vivo antibacterial activity, acute lethal infection in mice; details: for Survival Ratio 7 Days After Infection With S. pyogenes C203: mice, 30 minutes after infection
Method: (§4) The in vivo antibacterial activity of antibiotic LL-E19020 Gamma is established by infecting female CD-1 mice from Charles River Laboratories, weighing 20±2 g each, intraperitoneally with either 2.0 X 10^2 CFU/0.5 ml Streptococcus pyogenes C203 suspended in broth or 2.8 X 10^6 CFU/0.5 ml Straphylococcus aureus Smith suspended in 5% hog gastric mucin. The mice were treated subcutaneously, 30 minutes after infection with the indicated dose of the test compound in 0.5 ml of 0.2% aqueous agar. Toxicity studies were performed administering the same treatment to uninfected mice.

[14] = system: Staphylococcus aureus Smith; experiment: as above; details: for Survival Ratio 7 Days After Infection With S. aureus Smith: mice, 30 minutes after infection
Method: as §4

[15] = Single Subcutaneous Dose 0.5 MG/KG
[16] = Single Subcutaneous Dose 1 MG/KG
[17] = Single Subcutaneous Dose 2 MG/KG
[18] = Single Subcutaneous Dose 4 MG/KG
[19] = Single Subcutaneous Dose 8 MG/KG
[20] = Single Subcutaneous Dose 16 MG/KG

SMILES: C/C=C\C=C\C1OC(O)(C(COC2CC(OC)C(OC3CC(OC)C(OC4CC(OC)C(O)C(C)O4)C(C)O3)C(C)O2)C(=O)NC/C=C/C=C(\C)C(OC)C(C)C2CC(O)C(/C=C/C=C/C=C/C(=O)O)O2)C(OC(=O)Cc2ccc(O)cc2)C(O)C1(C)C (stereo not shown) [LL-E19020 Gamma]
- MIC [1]: 0.12 to 16 µg/mL (≈ 0.0966 to 12.9 µM)
- Weight Gain ([2]; chicks, day 1 to day 14): 342 g
- Weight Gain, % improvement over control ([2]; chicks, day 1 to day 14): 6.5%
- feed conversion ([2]; chicks, day 1 to day 14): 1.297
- feed conversion, % improvement over control ([2]; chicks, day 1 to day 14): 1.9%
- efficiency of feed utilization, result in words ([2]; over unmedicated controls): increased the efficiency of feed utilization
- weight gain of chicks, result in words ([2]; over unmedicated controls): improved weight gain of chicks
- MIC [3]: 8 to 128 µg/mL (≈ 6.44 to 103 µM)
- MIC [4]: 32 µg/mL (≈ 25.8 µM)
- MIC [5]: 128 µg/mL (≈ 103 µM)
- MIC [6]: 0.5 µg/mL (≈ 0.402 µM)
- MIC [7]: 16 µg/mL (≈ 12.9 µM)
- MIC [8]: 128 µg/mL (≈ 103 µM)
- MIC [9]: 64 µg/mL (≈ 51.5 µM)
- MIC [10]: 64 µg/mL (≈ 51.5 µM)
- MIC [11]: 32 µg/mL (≈ 25.8 µM)
- MIC [12]: 16 µg/mL (≈ 12.9 µM)
- MIC (gram negative bacteria): > 128 µg/mL
- Survival Ratio 7 Days After Infection With S. pyogenes C203 [13, 15]: 0/5
- Survival Ratio 7 Days After Infection With S. pyogenes C203 [13, 16]: 0/5
- Survival Ratio 7 Days After Infection With S. pyogenes C203 [13, 17]: 0/5
- Survival Ratio 7 Days After Infection With S. pyogenes C203 [13, 18]: 1/5
- Survival Ratio 7 Days After Infection With S. pyogenes C203 [13, 19]: 3/5
- Survival Ratio 7 Days After Infection With S. pyogenes C203 [13, 20]: 4/5
- ED50 ([13]; sc, acute lethal infection in mice, Streptococcus pyogenes C203, single subcutaneous dose, read-out: approximate ED50): 4 to 8 mg/kg
- Survival Ratio 7 Days After Infection With S. aureus Smith [14, 15]: 0/5
- Survival Ratio 7 Days After Infection With S. aureus Smith [14, 16]: 0/5
- Survival Ratio 7 Days After Infection With S. aureus Smith [14, 17]: 0/5
- Survival Ratio 7 Days After Infection With S. aureus Smith [14, 18]: 0/5
- Survival Ratio 7 Days After Infection With S. aureus Smith [14, 19]: 0/5
- Survival Ratio 7 Days After Infection With S. aureus Smith [14, 20]: 0/5
- Survival Ratio 7 Days After Infection With S. aureus Smith ([14]; Single Subcutaneous Dose 32 MG/KG): 0/5
- Survival Ratio 7 Days After Infection With S. aureus Smith ([14]; Single Subcutaneous Dose 64 MG/KG): 0/5
- ED50 ([14]; sc, acute lethal infection in mice, Staphylococcus aureus Smith, single subcutaneous dose, read-out: approximate ED50): > 64 mg/kg
